From paper PMC7403980, “Anti-Inflammatory Effects of the Novel PIM Kinase Inhibitor KMU-470 in RAW 264.7 Cells through the TLR4-NF-κB-NLRP3 Pathway” (International Journal of Molecular Sciences, 2020)

Tests used:
Assay type in all cases: cell-based, murine
ASC = assay: LPS-induced ASC protein expression in RAW 264.7 cells (Western blot); conditions: KMU-470 0.1, 0.5, 1 μM 30 min, LPS 50 ng/mL 6 h
Experimental: (§1) Figure 6 Inhibitory effect of KMU-470 on LPS-induced up-regulation of pro-inflammatory cytokines and activation of NLRP3 inflammasome in RAW 264.7 cells. (A–C) Cells were treated with KMU-470 for 30 min and stimulated with LPS 50 ng/mL for 6 h. The levels of IL-1β, TNF-α, and IL-6 were determined using real time PCR. *** p < 0.001, *p < 0.05. (D) Cells were pre-treated with 0.1, 0.5, and 1 μM of KMU-470 for 30 min and treated with LPS 50 ng/mL for 6 h, respectively. Whole cell lysates were isolated and used to measure the protein expression levels of pro-IL-1β and β-actin by Western blot analysis. (E) Cells were pre-treated with 0.1, 0.5, and 1 μM of KMU-470 for 30 min and treated with LPS 50 ng/mL for 6 h, respectively. Whole cell lysates were isolated and used to measure the protein expression levels of […], ASC, pro-caspase-1, pro-IL-1β, and β-actin by Western blot analysis.
(§2) RAW 264.7 cells were pre-treated with KMU-470 (0.5–1 μM/mL) for 24 h and stimulated with LPS (50 ng/mL) for 6 h. […] Immunoreactive proteins were detected using the ELC Western blot detection system kit (Millipore). Signal intensity was measured using the Chemi Image documentation system (Fusion Fx7, VILBER LOUTMAT). Protein expression levels were quantified using the Image J program.

TNF-α = assay: LPS-induced TNF-α mRNA in RAW 264.7 cells (real time PCR); conditions: KMU-470 30 min, LPS 50 ng/mL 6 h
Experimental: as §1
Total RNA was isolated using TriZol reagent (Life Technologies; Gaithersburg, MD, USA) according to the manufacturer’s protocol. Total RNA absorbance was quantified by using Nanodrop 1000 (Thermo Fisher Scientific, Waltham, MA, USA). […] Real time quantitative PCR was performed by using the SYBR green premix (Roche Diagnostics, Mannheim, Germany) on the LightCycler 480 PCR (system Roche Diagnostics, Mannheim, Germany). […]

ERK = assay: LPS-induced phosphorylation of ERK in RAW 264.7 cells (Western blot); conditions: KMU-470 1 μM 24 h pre-treatment, LPS 50 ng/mL
Experimental: (§3) Figure 5 Effect of KMU-470 on LPS-induced phosphorylation of MAPKs/ IKKs/ NF-κB in RAW 264.7 cells. (A) Cells were pre-treated with 1μM of KMU-470 for 24 h and stimulated with LPS (50 ng/mL) at the indicated times. (C) Cells were pre-treated with 0.5 and 1μM of KMU-470 for 30 min prior to LPS treatment. Total proteins were isolated after 6 h exposure to LPS (50 ng/mL). The protein expression level of MAPKs, p-IKKα/β, and p-NF-κB were assessed using Western blot analyses. (B,D) The relative optical densities of MAPKs, p-IKKα/β, and p-NF-κB bands were analyzed by the Image-J program. *** p < 0.001.
(§4) RAW 264.7 cells were pre-treated with KMU-470 (0.5–1 μM/mL) for 24 h and stimulated with LPS (50 ng/mL) for 6 h. After stimulation, total cells were harvested, washed with PBS buffer, and then the total protein was extracted with a RIPA buffer (0.1 mM sodium orthovanadate, 137 mM NaCl, 15 mM EGTA, 0.1% Triton X-100, 25 mM MOPS, 15 mM MgCl2, 100 μM phenylmethylsulfonyl fluoride, and 20 μM leupeptin, adjusted to pH 7.2). […] Immunoreactive proteins were detected using the ELC Western blot detection system kit (Millipore). Signal intensity was measured using the Chemi Image documentation system (Fusion Fx7, VILBER LOUTMAT). Protein expression levels were quantified using the Image J program.

JNK = assay: LPS-induced phosphorylation of JNK in RAW 264.7 cells (Western blot); conditions: KMU-470 1 μM 24 h pre-treatment, LPS 50 ng/mL
Experimental: as §3, §4

NF-κB = assay: LPS-induced phosphorylation of NF-κB in RAW 264.7 cells (Western blot); conditions: KMU-470 0.5 and 1 μM 30 min, LPS 50 ng/mL 6 h
Experimental: as §3, §4

NO production = assay: LPS-induced NO production in RAW 264.7 cells (Griess reagent); conditions: KMU-470 1 μM 30 min pre-treatment, LPS 50, 200, 1000 ng/mL 24 h
Experimental: Figure 3 Inhibitory effect of KMU-470 on LPS-induced NO production and iNOS protein expression, and cell viability in RAW 264.7 cells. (A) The cells were pre-treated with KMU-470 at a concentration of 1 μM for 30 min and then treated with different concentrations of LPS for 24 h. Nitrite in the culture supernatant was collected and evaluated using Griess reagent. Absorbance was measured at 540 nm. *** p < 0.001, ** p < 0.01, * p < 0.05. (B) Cells are pre-treated with two different concentrations of KMU-470 (0.5 μM and 1 μM) for 30 min, followed by treatment with 1 μg/mL LPS for 24 h. β-actin was used as an internal control for Western blot analysis. (C) Image-J program was used to analyze the relative optical density of the iNOS band. (D) Cells were treated with various concentrations of KMU-470 for 24 h. The effects of KMU-470 on cell proliferation and morphological changes were observed by microscopy (X100). (E) The cell proliferation rate was determined by cell count using a trypan blue exclusion assay. *p < 0.05 (F) Effect of KMU-470 on cell viability was measured by XTT assay. *** p < 0.001.
The amount of nitrite accumulated in the cell culture medium was measured directly using a Griess reagent as an indicator of NO production. […] The OD was measured by spectrophotometer (BMG Labtech, Ortenberg, Germany) at 540 nm. […]

NLRP3 = assay: LPS-induced NLRP3 protein expression in RAW 264.7 cells (Western blot); conditions: KMU-470 0.1, 0.5, 1 μM 30 min, LPS 50 ng/mL 6 h
Experimental: as §1, §2

SMILES: CN(C)CCNc1cncc(-c2ccc3c(c2)/C(=C/c2cnc[nH]2)C(=O)N3)n1 [KMU-470, (Z)-3-((1H-Imidazol-5-yl)methylene)-5-(6-((2-(dimethylamino)ethyl)amino)pyrazin-2-yl)indolin-2-one]
- Expression of ASC protein compared with LPS alone group (ASC): marked decrease
- LPS-induced up-regulation of TNF-α (mRNA) (TNF-α): significantly decreased
- LPS-induced phosphorylation of ERK (ERK): significantly inhibited
- LPS-induced phosphorylation of JNK (JNK): significantly inhibited
- LPS-induced phosphorylation of NF-κB (NF-κB): significantly reduced
- LPS-induced NO production (NO production): suppressed
- Expression of NLRP3 protein compared with LPS alone group (NLRP3): marked decrease
